Results on 1 compound are retold here after ChEMBL document CHEMBL6182933, “Design and Synthesis of PARP/CDK6 Dual-Target Inhibitors Modulating of Wnt/β-Catenin Signaling Pathway for the Treatment of BRCA Wild-Type TNBC” (J Med Chem, 2025).

In data set [1] the target is Poly [ADP-ribose] polymerase 1 (Homo sapiens, UniProt P09874). Put plainly: Inhibition of GST-tagged PARP1(unknown origin) in presence of activated DNA incubated for 60 mins by microplate reader analysis.
The target of data set [2] is Cyclin-dependent kinase 6 (Homo sapiens, UniProt Q00534). Put plainly: Inhibition of full length N-terminal human recombinant CDK6 expressed in baculovirus sf9 cells in presence of ATP by ADP-glo kinase assay. For orientation: ADP-Glo first removes unused ATP, then detects ADP through luciferase.
A further data set relates to MDA-MB-231. Description: Antiproliferative activity against human MDA-MB-231 cells assessed as cell viability incubated for 48 hrs by MTT assay. The conditions noted are these: MDA-MB-231, 48 h. It is filed as functional, cell-based. On the technique in general: Formazan colour is commonly taken as a measure of viable cells.
A further data set has as its system MDA-MB-468. Description: Antiproliferative activity against human MDA-MB-468 cells assessed as cell viability incubated for 48 hrs by MTT assay. The class given is functional, cell-based. The conditions noted are these: MDA-MB-468, 48 h.
In the next data set the test system is HCC1937. Description: Antiproliferative activity against human HCC1937 cells harboring BRCA1 mutant assessed as cell viability incubated for 48 hrs by MTT assay. The class given is functional, cell-based. The conditions noted are these: HCC1937, 48 h.
The test system of a further data set is HCT-116. Description: Antiproliferative activity against human HCT-116 cells harboring BRCA2 mutant assessed as cell viability incubated for 48 hrs by MTT assay. It is filed as functional, cell-based. The conditions noted are these: HCT-116, 48 h.
A short description of data set [3]: Cytotoxicity against human MCF-10A cells assessed as cell viability incubated for 48 hrs by MTT assay. The class given is toxicity, cell-based.
The nature of data set [4]: Selectivity index, ratio of IC50 for antiproliferative activity against human HCC1937 cells harboring BRCA1 mutant assessed as cell viability to IC50 for antiproliferative activity against human MDA-MB-231 cells assessed as cell viability. The class given is functional.

Chain of Poly [ADP-ribose] polymerase 1 (P09874 whole entry): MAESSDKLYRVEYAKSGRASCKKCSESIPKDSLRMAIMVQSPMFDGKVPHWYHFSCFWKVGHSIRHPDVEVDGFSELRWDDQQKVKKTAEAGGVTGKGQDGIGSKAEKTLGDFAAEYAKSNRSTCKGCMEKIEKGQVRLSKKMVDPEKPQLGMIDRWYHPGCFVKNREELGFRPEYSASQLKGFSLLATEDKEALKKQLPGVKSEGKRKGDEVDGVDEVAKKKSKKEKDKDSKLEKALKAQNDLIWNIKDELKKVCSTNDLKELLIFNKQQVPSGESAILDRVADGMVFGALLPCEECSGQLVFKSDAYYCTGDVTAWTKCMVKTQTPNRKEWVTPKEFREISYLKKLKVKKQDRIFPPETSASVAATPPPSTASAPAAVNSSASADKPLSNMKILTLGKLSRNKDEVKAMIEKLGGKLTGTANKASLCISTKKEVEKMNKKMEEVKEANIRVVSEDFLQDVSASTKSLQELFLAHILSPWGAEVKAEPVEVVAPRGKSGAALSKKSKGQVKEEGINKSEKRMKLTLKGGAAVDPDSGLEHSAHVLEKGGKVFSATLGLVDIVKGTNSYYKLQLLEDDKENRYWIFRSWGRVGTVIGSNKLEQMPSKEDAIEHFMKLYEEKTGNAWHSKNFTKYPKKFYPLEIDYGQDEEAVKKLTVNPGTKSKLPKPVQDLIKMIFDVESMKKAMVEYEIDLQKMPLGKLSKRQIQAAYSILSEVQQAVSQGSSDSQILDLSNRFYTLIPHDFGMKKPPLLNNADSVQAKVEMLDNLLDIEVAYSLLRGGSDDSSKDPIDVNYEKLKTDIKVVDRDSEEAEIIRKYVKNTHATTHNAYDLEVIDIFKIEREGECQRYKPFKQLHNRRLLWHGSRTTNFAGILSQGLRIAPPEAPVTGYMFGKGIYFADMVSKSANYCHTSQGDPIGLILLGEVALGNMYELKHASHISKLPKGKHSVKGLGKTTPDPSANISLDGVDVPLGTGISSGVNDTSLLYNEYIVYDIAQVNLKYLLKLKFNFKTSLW
Chain of Cyclin-dependent kinase 6 (Q00534 whole entry): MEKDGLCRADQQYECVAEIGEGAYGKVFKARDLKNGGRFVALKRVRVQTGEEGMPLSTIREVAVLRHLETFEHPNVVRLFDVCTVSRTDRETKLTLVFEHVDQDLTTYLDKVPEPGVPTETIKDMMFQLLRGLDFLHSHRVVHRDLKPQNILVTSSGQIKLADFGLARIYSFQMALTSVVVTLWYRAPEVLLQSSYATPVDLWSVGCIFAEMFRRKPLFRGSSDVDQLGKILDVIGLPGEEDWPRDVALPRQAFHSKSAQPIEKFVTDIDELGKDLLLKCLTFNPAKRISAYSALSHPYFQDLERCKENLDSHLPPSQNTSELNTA

In the case of `CN(C)C(=O)c1cc2cnc(Nc3ccc(C(=O)N4CCC(c5nc6c(C(N)=O)cccc6[nH]5)C4)cc3Cl)nc2n1C1CCCC1` (stereo not drawn), the concentration for half-maximal inhibition (IC50) was 113 nM in data set [1]; 45.6 nM in data set [2]; 1590 nM in the data set on MDA-MB-231; 4390 nM with MDA-MB-468; 8720 nM with HCC1937; 2020 nM in the data set with HCT-116. Moreover, in data set [3], the half-inhibitory concentration (IC50) at 48 h was 930 nM. In data set [4], the “Ratio IC50” value came out at 5.48.

For orientation: IC50 means the concentration that gives 50% inhibition.
